Source: US12290071B2, “Performic acid biofilm prevention for industrial CO2 scrubbers” (ECOLAB USA INC., priority 2016, dated 2025)

Legend:
[1] = test system: P. aeruginosa ATCC 15442 biofilm; assay: Reduction of P. aeruginosa biofilm at different exposure times (ASTM E2562-12 / E2871-12); type: cell-based, Pseudomonas aeruginosa ATCC 15442; conditions: 50 ppm PFA for 15 min to 3 hours vs 200 ppm POAA for 3 hours
Protocol: Reduction of P. aeruginosa Biofilm Using Different Exposure Times of Peroxyformic Acid. P. aeruginosa ATCC 15442 biofilm was grown on the surface of 24 polycarbonate coupons following ASTM method E2562-12: Standard Test Method for Quantification of Pseudomonas aeruginosa Biofilm Grown with High Shear and Continuous Flow using CDC Biofilm Reactor. After 48 hours of biofilm establishment, the coupons were removed from the reactor and placed into individual centrifuge tubes. Three coupons per test condition were tested for disinfectant efficacy using ASTM method E2871-12: Standard Test Method for Evaluating Disinfectant Efficacy against Pseudomonas aeruginosa Biofilm Grown in CDC Biofilm Reactor using Single Tube Method. Sets of three coupons were exposed to 4 mL of 50 ppm PFA for exposure times of 15 minutes, 30 minutes, 1 hour, 2 hours and 3 hours, while coupons treated with 200 ppm POAA were exposed for 3 hours only. […] This was followed with a series of vortexing and sonicating steps to remove any biofilm from the coupon surface into the solution for plating and enumeration.

[2] = test system: Pseudomonas aeruginosa ATCC 15442; assay: Biocidal performance of performic acid, log reduction in synthetic hard water; type: cell-based; conditions: 0.5, 1.0, 2.0 ppm PFA; 10 minutes and 4 hours contact; 25° C.
Protocol: Additional biocidal performance of performic acid was evaluated for log reduction of Pseudomonas aeruginosa as shown in Table 2.

Pseudomonas biofilm = Pseudomonas biofilm on polycarbonate coupons, PFA compared with another peroxyacid; type: cell-based, Pseudomonas aeruginosa; conditions: 50 ppm PFA vs 200 ppm PAA, hard water pH 7.71, 3 hrs exposure
Protocol: Additional biocidal performance of performic acid was evaluated for log reduction of Pseudomonas aeruginosa in comparison to another peroxyacid. A Pseudomonas biofilm was treated with 50 ppm active of PFA and compared to efficacy treated with 200 ppm PAA. Pseudomonas biofilms were grown in a CDC biofilm reactor on a poly carbonate coupons. Appropriate concentration of the treatment substance were diluted in hard water at pH 7.71 diluent. Test chemicals were exposed for 3 hrs after which they were treated with 16 mLs of thiosulfate to neutralize any oxidants. The untreated control and treated Pseudomonas were plated on a TGE media and incubated at 35° C. for 48 hrs. A […] reduction was monitored by colony counting of Pseudomonas on plates.

[3] = test system: biofilm fouling of CO2 scrubbers; assay: Field test of CO2 scrubbers in an ethanol fermentation plant; conditions: 30 minute treatment at 75-100 ppm PFA, ambient temperature, 80 gallons per minute
Protocol: Removal and/or prevention of biofilm fouling of CO2 scrubbers was tested with peroxyformic acid. Such scrubbers were evaluated in an ethanol fermentation plant which conventionally employs CIP cleaning process with hot caustic recirculated through the system every few weeks to clean any biofilm which has accumulated since the prior CIP cleaning cycle. This problem to be solved is the prevention of biofilm in the systems instead of removal of the biofilm after the same has been formed. The prevention of biofilm is more desirable than removal, as biofilm scuffs off and undesirably plugs lines within the system and in an fermentation facility the stream of reclaimed ethanol that goes back into the process may undesirably carry microbes from the biofilm. As a result, the use of performic acid was compared to the conventional CIP cleaning for efficacy. […]

[4] = test system: broad spectrum of microorganisms; conditions: background statement; cited from earlier work

Compound | anti-biofilm efficacy compared with POAA (in words) [1] | biocidal efficacy (in words) [2] | reduction in Pseudomonas aeruginosa compared with peracetic acid (in words) (Pseudomonas biofilm) | biofilm formation in CO2 scrubbers (in words) [3] | concentration at which it is a good biocide [4]
O=COO [peroxyformic acid] | greater anti-biofilm efficacy with shorter exposure time and lower concentrations than POAA | beneficially efficacy | substantially increased reduction in Pseudomonas aeruginosa | biofilm did not form | 
CC(=O)OO [Peracetic acid] |  |  |  |  | greater than 80 part per million
